In assay [1] the test system is Cocklebur. As to the kind of experiment: Postemergence herbicidal activity, cocklebur. The format is in vivo, Xanthium pensylvanicum. To be noted: Xanthium strumarium, post-emergence, 0.3 kg/ha, after 17-21 days, read-out: Postemergence herbicidal activity (% control), Cocklebur. The method, then:
(§1) The 3-[4-(phenylmethoxy)phenyl]-1-substituted-6-haloalkyluracil herbicides of this invention were tested for pre- and postemergence herbicidal activity using a variety of crops and weeds. The test plants included soybean (Glycine max var. Williams), field corn (Zea mays var. Agway 425X), wheat (Triticum aestivum var. Wheaton), morningglory (Ipomea lacunosa or Ipomea hederacea), velvetleaf (Abutilon theophrasti), green foxtail (Setaria viridis), Johnsongrass (Sorghum halepense), blackgrass (Aloepecurus myosuroides), common chickweed (Stellaria media), and common cocklebur (Xanthium pensylvanicum).
(§2) For preemergence testing, two disposable fiber flats (8 cm×15 cm×25 cm) for each rate of application of each candidate herbicide were filled to an approximate depth of 6.5 cm with steam-sterilized sandy loam soil. The soil was leveled and impressed with a template to provide five evenly spaced furrows 13 cm long and 0.5 cm deep in each flat. Seeds of soybean, wheat, corn, green foxtail, and johnsongrass were planted in the furrows of the first flat, and seeds of velvetleaf, morningglory, common chickweed, cocklebur, and blackgrass were planted in the furrows of the second flat. The five-row template was employed to firmly press the seeds into place. A topping soil of equal portions of sand and sandy loam soil was placed uniformly on top of each flat to a depth of approximately 0.5 cm. Flats for postemergence testing were prepared in the same manner except that they were planted 8-12 days prior to the preemergence flats and were placed in a greenhouse and watered, thus allowing the seeds to germinate and the foliage to develop.
(§3) In both pre- and postemergence tests, a stock solution of the candidate herbicide was prepared by dissolving 0.27 g of the compound in 20 mL of water/acetone (50/50) containing 0.5% v/v sorbitan monolaurate. For an application rate of 3000 g/ha of herbicide a 10 mL portion of the stock solution was diluted with water/acetone (50/50) to 45 mL.
(§4) The preemergence flats were initially subjected to a light water spray. The four flats were placed two by two along a conveyor belt (i.e., the two preemergence followed by the two postemergence flats). The conveyor belt fed under a spray nozzle mounted about ten inches above the postemergent foliage. The preemergent flats were elevated on the belt so that the soil surface was at the same level below the spray nozzle as the foliage canopy of the postemergent plants. The spray of herbicidal solution was commenced and once stabilized, the flats were passed under the spray at a speed to receive a coverage equivalent of 1000 L/ha. At this coverage the application rates are those shown in the above table for the individual herbicidal solutions. The preemergence flats were watered immediately thereafter, placed in the greenhouse and watered regularly at the soil surface. The postemergence flats were immediately placed in the greenhouse and not watered until 24 hours after treatment with the test solution. Thereafter they were regularly watered at ground level. After 17-21 days the plants were examined and the phytotoxicity data were recorded.
(§5) Herbicidal activity data at selected application rates are given for various compounds of this invention in Table 2 and Table 3. The test compounds are identified by numbers which correspond to those in Table 1.
(§6) Phytotoxicity data were taken as percent control. Percent control was determined by a method similar to the 0 to 100 rating system disclosed in "Research Methods in Weed Science," 2nd ed., B. Truelove, Ed.; Southern Weed Science Society; Auburn University, Auburn, Ala., 1977.

Assay [2] concerns Velvetleaf. Nature of the assay: Preemergence herbicidal activity, velvetleaf. To be noted: Abutilon theophrasti, pre-emergence, 0.3 kg/ha, after 17-21 days, read-out: Preemergence herbicidal activity (% control), Velvetleaf. The format is in vivo. The method, then:
as §1, §2, §3, §4, §5, §6

Assay [3] deals with Johnsongrass. Nature of the assay: Preemergence herbicidal activity, johnsongrass. The format is in vivo. As to conditions: Sorghum halepense, pre-emergence, 0.3 kg/ha, after 17-21 days, read-out: Preemergence herbicidal activity (% control), Johnsongrass. As for the experimental part: as §1, §2, §3, §4, §5, §6
For assay [4], the system named is Green foxtail. As to the kind of experiment: Postemergence herbicidal activity, green foxtail. The format is in vivo. As to conditions: Setaria viridis, post-emergence, 0.3 kg/ha, after 17-21 days, read-out: Postemergence herbicidal activity (% control), Green foxtail. The method, then: as §1, §2, §3, §4, §5, §6
The subject of assay [5] is Wheat. Nature of the assay: Preemergence herbicidal activity, wheat. As to conditions: Triticum aestivum, pre-emergence, 0.3 kg/ha, after 17-21 days, read-out: Preemergence herbicidal activity (% control), Wheat. The format is in vivo, Triticum aestivum var. Wheaton. The method, then: as §1, §2, §3, §4, §5, §6
Assay [6] deals with Corn. As to the kind of experiment: Preemergence herbicidal activity, corn. The format is in vivo, Zea mays var. Agway 425X. To be noted: Zea mays, pre-emergence, 0.3 kg/ha, after 17-21 days, read-out: Preemergence herbicidal activity (% control), Corn. The method, then: as §1, §2, §3, §4, §5, §6
Assay [7] deals with Velvetleaf. Nature of the assay: Postemergence herbicidal activity, velvetleaf. The format is in vivo. As to conditions: Abutilon theophrasti, post-emergence, 0.3 kg/ha, after 17-21 days, read-out: Postemergence herbicidal activity (% control), Velvetleaf. The method, then: as §1, §2, §3, §4, §5, §6
Assay [8] relates to Blackgrass. As to the kind of experiment: Preemergence herbicidal activity, blackgrass. The format is in vivo, Aloepecurus myosuroides. To be noted: Alopecurus myosuroides, pre-emergence, 0.3 kg/ha, after 17-21 days, read-out: Preemergence herbicidal activity (% control), Blackgrass. As for the experimental part: as §1, §2, §3, §4, §5, §6
The subject of assay [9] is Corn. Nature of the assay: Postemergence herbicidal activity, corn. The format is in vivo, Zea mays var. Agway 425X. As to conditions: Zea mays, post-emergence, 0.3 kg/ha, after 17-21 days, read-out: Postemergence herbicidal activity (% control), Corn. The method, then: as §1, §2, §3, §4, §5, §6
In assay [10] the test system is Soybean. As to the kind of experiment: Postemergence herbicidal activity, soybean. The format is in vivo, Glycine max var. Williams. As to conditions: Glycine max, post-emergence, 0.3 kg/ha, after 17-21 days, read-out: Postemergence herbicidal activity (% control), Soybean. As for the experimental part:
as §1, §2, §3, §4, §5, §6

The subject of assay [11] is Johnsongrass. As to the kind of experiment: Postemergence herbicidal activity, johnsongrass. The format is in vivo. As to conditions: Sorghum halepense, post-emergence, 0.3 kg/ha, after 17-21 days, read-out: Postemergence herbicidal activity (% control), Johnsongrass. The method, then: as §1, §2, §3, §4, §5, §6
In assay [12] the test system is Chickweed. Nature of the assay: Preemergence herbicidal activity, chickweed. The format is in vivo. As to conditions: Stellaria media, pre-emergence, 0.3 kg/ha, after 17-21 days, read-out: Preemergence herbicidal activity (% control), Chickweed. As for the experimental part: as §1, §2, §3, §4, §5, §6
In assay [13] the test system is Morningglory. As to the kind of experiment: Postemergence herbicidal activity, morningglory. As to conditions: Ipomoea, post-emergence, 0.3 kg/ha, after 17-21 days, read-out: Postemergence herbicidal activity (% control), Morningglory. The format is in vivo, Ipomea lacunosa or Ipomea hederacea. As for the experimental part: as §1, §2, §3, §4, §5, §6
Assay [14] has as its system Green foxtail. Nature of the assay: Preemergence herbicidal activity, green foxtail. The format is in vivo. As to conditions: Setaria viridis, pre-emergence, 0.3 kg/ha, after 17-21 days, read-out: Preemergence herbicidal activity (% control), Green foxtail. As for the experimental part: as §1, §2, §3, §4, §5, §6
Assay [15] concerns Blackgrass. As to the kind of experiment: Postemergence herbicidal activity, blackgrass. The format is in vivo, Aloepecurus myosuroides. To be noted: Alopecurus myosuroides, post-emergence, 0.3 kg/ha, after 17-21 days, read-out: Postemergence herbicidal activity (% control), Blackgrass. As for the experimental part: as §1, §2, §3, §4, §5, §6
Assay [16] relates to Morningglory. As to the kind of experiment: Preemergence herbicidal activity, morningglory. The format is in vivo, Ipomea lacunosa or Ipomea hederacea. As to conditions: Ipomoea, pre-emergence, 0.3 kg/ha, after 17-21 days, read-out: Preemergence herbicidal activity (% control), Morningglory. As for the experimental part: as §1, §2, §3, §4, §5, §6
Assay [17] deals with Soybean. As to the kind of experiment: Preemergence herbicidal activity, soybean. As to conditions: Glycine max, pre-emergence, 0.3 kg/ha, after 17-21 days, read-out: Preemergence herbicidal activity (% control), Soybean. The format is in vivo, Glycine max var. Williams. The method, then:
as §1, §2, §3, §4, §5, §6

Assay [18] deals with Chickweed. As to the kind of experiment: Postemergence herbicidal activity, chickweed. The format is in vivo. As to conditions: Stellaria media, post-emergence, 0.3 kg/ha, after 17-21 days, read-out: Postemergence herbicidal activity (% control), Chickweed. As for the experimental part: as §1, §2, §3, §4, §5, §6
Assay [19] deals with Cocklebur. Nature of the assay: Preemergence herbicidal activity, cocklebur. The format is in vivo, Xanthium pensylvanicum. As to conditions: Xanthium strumarium, pre-emergence, 0.3 kg/ha, after 17-21 days, read-out: Preemergence herbicidal activity (% control), Cocklebur. The method, then:
as §1, §2, §3, §4, §5, §6

The test system of assay [20] is Wheat. As to the kind of experiment: Postemergence herbicidal activity, wheat. As to conditions: Triticum aestivum, post-emergence, 0.3 kg/ha, after 17-21 days, read-out: Postemergence herbicidal activity (% control), Wheat. The format is in vivo, Triticum aestivum var. Wheaton. As for the experimental part: as §1, §2, §3, §4, §5, §6

Molecules are shown by their SMILES.

On to `Cn1c(C(F)(F)F)cc(=O)n(-c2ccc(OCc3ccc(F)cc3)cc2)c1=O` [Compound 5], for which the activity at 300 g/ha in [1] was 100%; in assay [2] it was 100%; in assay [3] it was 90%; in assay [4], 90%; in assay [5] it was 20%; in assay [6], 50%. The activity at 300 g/ha in assay [7] was determined as 100%; in assay [8], 20%; in assay [9], 75%; in [10], 90%; in assay [11], 75%; in assay [12], 100%. In addition, the activity at 300 g/ha in assay [13] was determined as 100%; in assay [14] it was 100%; in [15], 30%; in assay [16] it was 100%; in [17], 60%; in assay [18], 100%. Also, the activity at 300 g/ha in assay [19] was found to be 40%; in assay [20], 0%.
Turning to `Cn1c(C(F)(F)F)cc(=O)n(-c2ccc(OCc3ccc(Cl)cc3Cl)cc2)c1=O` [Compound 6], the activity at 300 g/ha was found to be 60% in [1]; 100% in [2]; 60% in [3]; 40% in assay [4]; 0% in [5]; 10% in assay [6]. In addition, the activity at 300 g/ha in [7] is 80%; in assay [8] it was 0%; in assay [9], 20%; in [10] it was 40%; in assay [11], 20%; in [12], 10%. In addition, the activity at 300 g/ha in assay [13] turned out to be 50%; in assay [14] it was 100%; in assay [15] it was 0%; in [16], 45%; in assay [17] it was 20%; in [18], 0%. The results for the activity at 300 g/ha in assay [19] and in [20] were 10% and 0%, respectively.
Regarding `Cn1c(C(F)(F)F)cc(=O)n(-c2ccc(OCc3c(Cl)cccc3Cl)cc2)c1=O` [Compound 7], the activity at 300 g/ha came out at 0% in assay [1]; 0% in assay [2]; 0% in [3]; 90% in assay [4]; 0% in assay [5]; 0% in [6]. Besides, the activity at 300 g/ha in assay [7], in assay [8], in assay [9], in [10], in assay [11] and in [12] was 0% each time. The activity at 300 g/ha worked out at 10% in [13]; 0% in assay [14]; 0% in assay [15]; 0% in [16]; 0% in assay [17]; 0% in assay [18]. The activity at 300 g/ha in assay [19] and in assay [20] was 0% each time.
For the compound `COc1cccc(COc2ccc(-n3c(=O)cc(C(F)(F)F)n(C)c3=O)cc2)c1` [Compound 8], the activity at 300 g/ha in [1] was determined as 100%; in assay [2], 100%; in assay [3] it was 80%; in assay [4], 100%; in [5], 15%; in assay [6], 35%. Besides, the activity at 300 g/ha in assay [7] was 100%; in assay [8], 10%; in assay [9] it was 85%; in assay [10], 85%; in [11] it was 100%; in [12], 90%. For the same compound, the activity at 300 g/ha amounted to 100% in assay [13]; 100% in assay [14]; 10% in assay [15]; 65% in [16]; 10% in assay [17]; 100% in assay [18]. Besides, the activity at 300 g/ha in [19] was found to be 0%; in assay [20] it was 10%.
As to `Cn1c(C(F)(F)F)cc(=O)n(-c2ccc(OCc3ccccc3)cc2F)c1=O` [Compound 9], the activity at 300 g/ha in [1] was found to be 100%; in assay [2] it was 100%; in [3], 100%; in assay [4] it was 100%; in assay [5], 40%; in assay [6], 80%. In addition, the activity at 300 g/ha in assay [7] worked out at 100%; in assay [8], 30%; in assay [9] it was 70%; in assay [10] it was 70%; in assay [11], 95%; in assay [12], 90%. Moreover, the activity at 300 g/ha was 100% in assay [13]; 100% in assay [14]; 0% in assay [15]; 100% in assay [16]; 85% in assay [17]; 80% in assay [18]. For the same compound, the activity at 300 g/ha in assay [19] is 50%; in assay [20], 20%.
